In ChEMBL document CHEMBL1130581, “Inhibition of nematode induced root damage by derivatives of methylenecyclopropane acetic acid” (1997):
Converted amounts (≈) assume the structure as drawn.

Legend:
Assay type in all cases: functional
Meloidogyne incognita [1] = experiment: Average percent inhibition of nematode pest Meloidogyne incognita induced root galling of treated sand medium at 0.5 ppm
Meloidogyne incognita [2] = experiment: Average percent inhibition of nematode pest Meloidogyne incognita induced root galling of treated sand medium at 125 ppm
Meloidogyne incognita [3] = experiment: Average percent inhibition of nematode pest Meloidogyne incognita induced root galling of treated sand medium at 7.8 ppm
Meloidogyne incognita [4] = experiment: Average percent inhibition of nematode pest Meloidogyne incognita induced root galling of treated soil medium at 0.5 ppm
Meloidogyne incognita [5] = experiment: Average percent inhibition of nematode pest Meloidogyne incognita induced root galling of treated soil medium at 125 ppm
Meloidogyne incognita [6] = experiment: Average percent inhibition of nematode pest Meloidogyne incognita induced root galling of treated soil medium at 7.8 ppm
Meloidogyne incognita [7] = experiment: Lethal concentration required for inhibition of nematode induced root galling of treated sand medium to that of untreated soil medium

Q: For `C=C1CC1CCSC1=NCCS1` (stereo not drawn), which inhibition at 0.5 ppm (Meloidogyne incognita [1]) is on record?
A: The inhibition at 0.5 ppm was 50%.

Q: What about the inhibition at 125 ppm (Meloidogyne incognita [2]) of the same compound?
A: The inhibition at 125 ppm was 100%.

Q: And the inhibition at 7.8 ppm (Meloidogyne incognita [3])?
A: Its inhibition at 7.8 ppm is 100%.

Q: What about the inhibition at 0.5 ppm (Meloidogyne incognita [4]) of the same compound?
A: Its inhibition at 0.5 ppm is 0%.

Q: What about the inhibition at 125 ppm (Meloidogyne incognita [5]) of the same compound?
A: Its inhibition at 125 ppm is 100%.

Q: What about the inhibition at 7.8 ppm (Meloidogyne incognita [6]) of the same compound?
A: The inhibition at 7.8 ppm was 25%.

Q: Which inhibition at 0.5 ppm (Meloidogyne incognita [1]) does the source give for `C=C1CC1CC(=O)O` (stereo not drawn) here?
A: Its inhibition at 0.5 ppm is 90%.

Q: And the inhibition at 125 ppm (Meloidogyne incognita [2])?
A: Its inhibition at 125 ppm is 100%.

Q: What about the inhibition at 7.8 ppm (Meloidogyne incognita [3]) of the same compound?
A: Its inhibition at 7.8 ppm is 100%.

Q: And the inhibition at 0.5 ppm (Meloidogyne incognita [4])?
A: The inhibition at 0.5 ppm was 0%.

Q: What about the inhibition at 125 ppm (Meloidogyne incognita [5]) of the same compound?
A: The inhibition at 125 ppm was 80%.

Q: And the inhibition at 7.8 ppm (Meloidogyne incognita [6])?
A: The inhibition at 7.8 ppm was 15%.

Q: Which results are given for `CC1CC1CC(=O)O` (stereo not drawn)?
A: inhibition at 0.5 ppm (Meloidogyne incognita [1]): 0%; inhibition at 125 ppm (Meloidogyne incognita [2]): 100%; inhibition at 7.8 ppm (Meloidogyne incognita [3]): 100%; inhibition at 0.5 ppm (Meloidogyne incognita [4]): 0%; inhibition at 125 ppm (Meloidogyne incognita [5]): 0%; inhibition at 7.8 ppm (Meloidogyne incognita [6]): 0%

Q: With `C=C1CC1CC(=O)OCc1cccc(Oc2ccccc2)c1` (stereo not drawn) as the compound, how does the inhibition at 0.5 ppm (Meloidogyne incognita [1]) read?
A: Its inhibition at 0.5 ppm is 50%.

Q: And the inhibition at 125 ppm (Meloidogyne incognita [2])?
A: The inhibition at 125 ppm was 100%.

Q: What about the inhibition at 7.8 ppm (Meloidogyne incognita [3]) of the same compound?
A: Its inhibition at 7.8 ppm is 100%.

Q: What about the inhibition at 0.5 ppm (Meloidogyne incognita [4]) of the same compound?
A: Its inhibition at 0.5 ppm is 0%.

Q: And the inhibition at 125 ppm (Meloidogyne incognita [5])?
A: The inhibition at 125 ppm was 50%.

Q: And the inhibition at 7.8 ppm (Meloidogyne incognita [6])?
A: Its inhibition at 7.8 ppm is 0%.

Q: `C=C1CC1CCN` (stereo not drawn) was tested. Which inhibition at 0.5 ppm (Meloidogyne incognita [1]) did it give?
A: Its inhibition at 0.5 ppm is 25%.

Q: And the inhibition at 125 ppm (Meloidogyne incognita [2])?
A: Its inhibition at 125 ppm is 100%.

Q: And the inhibition at 7.8 ppm (Meloidogyne incognita [3])?
A: The inhibition at 7.8 ppm was 100%.

Q: What about the inhibition at 0.5 ppm (Meloidogyne incognita [4]) of the same compound?
A: Its inhibition at 0.5 ppm is 0%.

Q: And the inhibition at 125 ppm (Meloidogyne incognita [5])?
A: Its inhibition at 125 ppm is 75%.

Q: And the inhibition at 7.8 ppm (Meloidogyne incognita [6])?
A: Its inhibition at 7.8 ppm is 0%.

Q: Which inhibition at 0.5 ppm (Meloidogyne incognita [4]) does the source give for `C=C1C(CC(=O)OCc2cccc(Oc3ccccc3)c2)C1(F)F` (stereo not drawn) here?
A: The inhibition at 0.5 ppm was 0%.

Q: And the inhibition at 125 ppm (Meloidogyne incognita [5])?
A: The inhibition at 125 ppm was 25%.

Q: And the inhibition at 7.8 ppm (Meloidogyne incognita [6])?
A: The inhibition at 7.8 ppm was 0%.

Q: What does the source list for `C=C1CC1CCOC(=O)c1ccc(OCC)cc1` (stereo not drawn)?
A: inhibition at 0.5 ppm (Meloidogyne incognita [1]): 100%; inhibition at 125 ppm (Meloidogyne incognita [2]): 100%; inhibition at 7.8 ppm (Meloidogyne incognita [3]): 100%; inhibition at 0.5 ppm (Meloidogyne incognita [4]): 0%; inhibition at 125 ppm (Meloidogyne incognita [5]): 100%; inhibition at 7.8 ppm (Meloidogyne incognita [6]): 0%

Q: `C=C1C(CC(=O)OCCCCCCCCCCCCCCCC)C1(F)F` (stereo not drawn) was tested. Which inhibition at 0.5 ppm (Meloidogyne incognita [4]) did it give?
A: Its inhibition at 0.5 ppm is 0%.

Q: What about the inhibition at 125 ppm (Meloidogyne incognita [5]) of the same compound?
A: Its inhibition at 125 ppm is 0%.

Q: What about the inhibition at 7.8 ppm (Meloidogyne incognita [6]) of the same compound?
A: Its inhibition at 7.8 ppm is 0%.

Q: `C=C1CC1CC(N)=O` (stereo not drawn) was tested. Which inhibition at 0.5 ppm (Meloidogyne incognita [1]) did it give?
A: Its inhibition at 0.5 ppm is 0%.

Q: What about the inhibition at 125 ppm (Meloidogyne incognita [2]) of the same compound?
A: The inhibition at 125 ppm was 100%.

Q: And the inhibition at 7.8 ppm (Meloidogyne incognita [3])?
A: The inhibition at 7.8 ppm was 100%.

Q: What about the inhibition at 0.5 ppm (Meloidogyne incognita [4]) of the same compound?
A: The inhibition at 0.5 ppm was 0%.

Q: What about the inhibition at 125 ppm (Meloidogyne incognita [5]) of the same compound?
A: The inhibition at 125 ppm was 100%.

Q: What about the inhibition at 7.8 ppm (Meloidogyne incognita [6]) of the same compound?
A: Its inhibition at 7.8 ppm is 0%.

Q: With `C=C1CC1CC(=O)OCCCCCCCCCCCCCCCC` (stereo not drawn) as the compound, how does the inhibition at 0.5 ppm (Meloidogyne incognita [1]) read?
A: Its inhibition at 0.5 ppm is 100%.

Q: What about the inhibition at 125 ppm (Meloidogyne incognita [2]) of the same compound?
A: Its inhibition at 125 ppm is 100%.

Q: And the inhibition at 7.8 ppm (Meloidogyne incognita [3])?
A: The inhibition at 7.8 ppm was 100%.

Q: And the inhibition at 0.5 ppm (Meloidogyne incognita [4])?
A: The inhibition at 0.5 ppm was 0%.

Q: What about the inhibition at 125 ppm (Meloidogyne incognita [5]) of the same compound?
A: Its inhibition at 125 ppm is 100%.

Q: What about the inhibition at 7.8 ppm (Meloidogyne incognita [6]) of the same compound?
A: Its inhibition at 7.8 ppm is 50%.

Q: With `C=C1C(CC(=O)O)C1(F)F` (stereo not drawn) as the compound, how does the inhibition at 0.5 ppm (Meloidogyne incognita [4]) read?
A: Its inhibition at 0.5 ppm is 0%.

Q: What about the inhibition at 125 ppm (Meloidogyne incognita [5]) of the same compound?
A: Its inhibition at 125 ppm is 100%.

Q: And the inhibition at 7.8 ppm (Meloidogyne incognita [6])?
A: Its inhibition at 7.8 ppm is 0%.

Q: `CNC(=O)O/N=C/C(C)(C)SC` [ALDICARB] was tested. Which LC50 (Meloidogyne incognita [7]) did it give?
A: The LC50 was 3.8 µg/mL (≈ 20 µM).
